This is an account of results in patent US20100113421A1, “NON-NUCLEOSIDE REVERSE TRANSCRIPTASE INHIBITORS” (priority 2006, published 2010).

Where two headings read alike, the source gives them in different places.

Experiment [1] has as its system mutant strain containing both the K103N and Y181C mutations. Briefly: Spread assay, mutant strain containing both K103N and Y181C. The format is cell-based, HIV. How it is done:
Assays for the inhibition of acute HIV-1 infection of T-lymphoid cells (alternatively referred to herein as the “spread assay”) were conducted in accordance with Vacca, J. P. et al., Proc. Natl. Acad. Sci. USA 1994, 91: 4096. The assays (using 10% FBS) tested for inhibition of wild type HIV-1 and of HIV strains containing the Y181C or K103N mutation. […] (Note that the compound of Example 6 was tested only up to a 833 nM concentration and the CIC95 value was determined to be >833 nM. The compound of Example 78 was not tested in the Y1818C assay.) The compounds of Examples 1 to 119 (including Examples 70A and 70B) had CIC95 values of less than 1000 nanomolar in the assay employing the K103N mutant strain. In an analogous assay employing a mutant strain containing both the K103N and Y181C mutations, the compounds of Examples 70A, 70B and 78-115 had CIC95 values of less than 1000 nanomolar.

Experiment [2] concerns HIV strain containing the Y181C mutation. Briefly: Spread assay, Y181C mutant strain. The format is cell-based. In short, it runs like this:
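Acute HIV-1 infection of T-lymphoid cells run in the presence of 10% FBS, […]; potency expressed as CIC95.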

The mark [3] stands for this setting: Human immunodeficiency virus 1, analogous spread assay, K103N and Y181C double mutant strain, read-out: CIC95.
Setting [4] is: Human immunodeficiency virus 1, spread assay, 10% FBS, Y181C mutant strain, read-out: CIC95.
The mark [5] stands for this setting: Human immunodeficiency virus 1, read-out: CIC95.

Turning to `CC(C)c1c(C(=O)N(C)Cc2ccnc(N)c2)[nH]c(C(N)=O)c1S(=O)(=O)c1cccc(F)c1` [Example 99, N5-[(2-aminopyridin-4-yl)methyl]-3-[(3-fluorophenyl)sulfonyl]-4-isopropyl-N5-methyl-1H-pyrrole-2,5-dicarboxamide], the IC95 in experiment [1] (setting [3]) was less than 1 µM; in experiment [2] (setting [4]) it was less than 8 µM.

`Cc1cc(C)cc(S(=O)(=O)c2c(C(N)=O)[nH]c(C(=O)N3CCCc4cc(O)ccc4C3)c2C)c1` [Example 88, 3-[(3,5-dimethylphenyl)sulfonyl]-4-methyl-5-(7-hydroxy-1,3,4,5-tetrahydro-2H-2-benzazepin-2-ylcarbonyl)-1H-pyrrole-2-carboxamide]: the IC95 in experiment [1] (setting [3]) was less than 1 µM; in experiment [2] (setting [4]), less than 8 µM.

Regarding `Cc1cc(C)cc(S(=O)(=O)c2c(C(N)=O)[nH]c(C(=O)N(C)Cc3ccnc(N)c3)c2C(C)C)c1` [Example 102, N5-[(2-aminopyridin-4-yl)methyl]-3-[(3,5-dimethylphenyl)sulfonyl]-4-isopropyl-N5-methyl-1H-pyrrole-2,5-dicarboxamide], the IC95 in experiment [1] (setting [3]) is less than 1 µM; in experiment [2] (setting [4]), less than 8 µM.

In the case of `COc1ccc2c(c1)CN(C(=O)c1[nH]c(C(N)=O)c(S(=O)(=O)c3cc(C)cc(C)c3)c1C)CCC2` [Example 89, 3-[(3,5-dimethylphenyl)sulfonyl]-4-methyl-5-(8-methoxy-1,3,4,5-tetrahydro-2H-2-benzazepin-2-ylcarbonyl)-1H-pyrrole-2-carboxamide], the IC95 in experiment [1] (setting [3]) was less than 1 µM; in experiment [2] (setting [4]), less than 8 µM.

Turning to `CC(C)c1c(C(=O)N(C)Cc2c(F)cncc2F)[nH]c(C(N)=O)c1S(=O)(=O)c1ccccc1` [Example 112, N2-[(3,5-difluoropyridin-4-yl)methyl]-3-isopropyl-N2-methyl-4-(phenylsulfonyl)-1H-pyrrole-2,5-dicarboxamide], the figures for the IC95 in experiment [1] (setting [3]) and in experiment [2] (setting [4]) were less than 1 µM and less than 8 µM, respectively.

Take `COc1ccc2c(c1)CCCN(C(=O)c1[nH]c(C(N)=O)c(S(=O)(=O)c3cc(C)cc(C)c3)c1C)C2` [Example 87, 3-[(3,5-dimethylphenyl)sulfonyl]-4-methyl-5-(7-methoxy-1,3,4,5-tetrahydro-2H-2-benzazepin-2-ylcarbonyl)-1H-pyrrole-2-carboxamide]: the IC95 in experiment [1] (setting [3]) is less than 1 µM; in experiment [2] (setting [4]), less than 8 µM.

In the case of `COc1ccc2c(c1)CN(C(=O)c1[nH]c(C(N)=O)c(S(=O)(=O)c3cccc(C(F)(F)F)c3)c1C)CCC2` [Example 95, 3-[(3-(1,1,1-trifluoromethyl)phenyl)sulfonyl]-4-methyl-5-(8-methoxy-1,3,4,5-tetrahydro-2H-2-benzazepin-2-ylcarbonyl)-1H-pyrrole-2-carboxamide], the IC95 is less than 1 µM in experiment [1] (setting [3]) and less than 8 µM in experiment [2] (setting [4]).

On to `CC(C)c1c(C(=O)N(C)Cc2ccnc(N)c2)[nH]c(C(N)=O)c1S(=O)(=O)c1ccccc1` [Example 101], for which the IC95 in experiment [1] (setting [3]) was less than 1 µM; in experiment [2] (setting [4]) it was less than 8 µM.

`COc1ccc2c(c1)CN(C(=O)c1[nH]c(C(N)=O)c(S(=O)(=O)c3cccc(F)c3)c1C)CCC2` [Example 93, 3-[(3-fluorophenyl)sulfonyl]-4-methyl-5-(8-methoxy-1,3,4,5-tetrahydro-2H-2-benzazepin-2-ylcarbonyl)-1H-pyrrole-2-carboxamide]: the IC95 in experiment [1] (setting [3]) was less than 1 µM; in experiment [2] (setting [4]), less than 8 µM.

Regarding `CC(C)c1c(C(=O)N(C)Cc2ccncc2Cl)[nH]c(C(N)=O)c1S(=O)(=O)c1ccccc1` [Example 106, N2-[(3-chloropyridin-4-yl)methyl]-3-isopropyl-N2-methyl-4-(phenylsulfonyl)-1H-pyrrole-2,5-dicarboxamide], the results for the IC95 in experiment [1] (setting [3]) and in experiment [2] (setting [4]) were less than 1 µM and less than 8 µM, respectively.

Regarding `Cc1cc(C)cc(S(=O)(=O)c2c(C(N)=O)[nH]c(C(=O)N(C)Cc3cc(Cl)ncc3F)c2C)c1` [Example 113, N5-[(2-chloro-5-fluoropyridin-4-yl)methyl]-3-[(3,5-dimethylphenyl)sulfonyl]-N5,4-dimethyl-1H-pyrrole-2,5-dicarboxamide], the IC95 in experiment [1] (setting [3]) was less than 1 µM; in experiment [2] (setting [4]), less than 8 µM.

Turning to `Cc1c(C(=O)N2CCCc3ccccc3C2)[nH]c(C(N)=O)c1S(=O)(=O)c1cc(Cl)cc(Cl)c1` [Example 83, 3-[(3,5-dichlorophenyl)sulfonyl]-4-methyl-5-(1,3,4,5-tetrahydro-2H-2-benzazepin-2-ylcarbonyl)-1H-pyrrole-2-carboxamide], the values for the IC95 in experiment [1] (setting [3]) and in experiment [2] (setting [4]) were less than 1 µM and less than 8 µM, respectively.

Take `CC(C)c1c(C(=O)N(C)Cc2cc3cccnc3cc2Cl)[nH]c(C(N)=O)c1S(=O)(=O)c1ccccc1` [Example 70B, 3-isopropyl-N-methyl-4-(phenylsulfonyl)-N-[(7-chloroquinolin-6-yl)methyl]-1H-pyrrole-2,5-dicarboxamide]: the IC95 in experiment [1] (setting [5]) was less than 1 µM; in experiment [2] (setting [5]) it was less than 8 µM.

Consider `Cc1cc(C)cc(S(=O)(=O)c2c(C(N)=O)[nH]c(C(=O)N3CCCc4ccccc4C3)c2C)c1` [Example 79, 4-Methyl-3-(3,5-dimethylphenylsulfonyl)-5-(1,3,4,5-tetrahydro-2H-2-benzazepine-2-ylcarbonyl)-1H-pyrrole-2-carboxamide], for which the IC95 was less than 1 µM in experiment [1] (setting [3]) and less than 8 µM in experiment [2] (setting [4]).

With `COc1ccc2c(c1)CN(C(=O)c1[nH]c(C(N)=O)c(S(=O)(=O)c3ccccc3)c1C)CCC2` [Example 91, 3-(phenylsulfonyl)-4-methyl-5-(8-methoxy-1,3,4,5-tetrahydro-2H-2-benzazepin-2-ylcarbonyl)-1H-pyrrole-2-carboxamide], the figures for the IC95 in experiment [1] (setting [3]) and in experiment [2] (setting [4]) were less than 1 µM and less than 8 µM, respectively.

For the compound `CC(C)c1c(C(=O)N(C)Cc2ccncc2F)[nH]c(C(N)=O)c1S(=O)(=O)c1ccccc1` [Example 110, N2-[(3-fluoropyridin-4-yl)methyl]-3-isopropyl-N2-methyl-4-(phenylsulfonyl)-1H-pyrrole-2,5-dicarboxamide], the IC95 is less than 1 µM in experiment [1] (setting [3]) and less than 8 µM in experiment [2] (setting [4]).

As for `CC(C)c1c(C(=O)N(C)Cc2ccnc(N)c2)[nH]c(C(N)=O)c1S(=O)(=O)c1cc(F)cc(F)c1` [Example 100, N5-[(2-aminopyridin-4-yl)methyl]-3-[(3,5-difluorophenyl)sulfonyl]-4-isopropyl-N5-methyl-1H-pyrrole-2,5-dicarboxamide], the IC95 in experiment [1] (setting [3]) is less than 1 µM; in experiment [2] (setting [4]), less than 8 µM.

For the compound `Cc1cc(C)cc(S(=O)(=O)c2c(C(N)=O)[nH]c(C(=O)N(C)Cc3c(F)cncc3F)c2C)c1` [Example 111, N5-[(3,5-difluoropyridin-4-yl)methyl]-3-[(3,5-dimethylphenyl)sulfonyl]-N5,4-dimethyl-1H-pyrrole-2,5-dicarboxamide], the IC95 in experiment [1] (setting [3]) is less than 1 µM; in experiment [2] (setting [4]), less than 8 µM.

As to `CC(C)c1c(C(=O)N(C)Cc2ccc3ncccc3c2Cl)[nH]c(C(N)=O)c1S(=O)(=O)c1ccccc1` [Example 70A, 3-isopropyl-N-methyl-4-(phenylsulfonyl)-N-[(5-chloroquinolin-6-yl)methyl]-1H-pyrrole-2,5-dicarboxamide], the IC95 in experiment [1] (setting [5]) was less than 1 µM; in experiment [2] (setting [5]), less than 8 µM.

With `CC(C)c1c(C(=O)N(C)Cc2cc(Cl)ncc2F)[nH]c(C(N)=O)c1S(=O)(=O)c1ccccc1` [Example 114, N2-[(2-chloro-5-fluoropyridin-4-yl)methyl]-3-isopropyl-N2-methyl-4-(phenylsulfonyl)-1H-pyrrole-2,5-dicarboxamide], the figures for the IC95 in experiment [1] (setting [3]) and in experiment [2] (setting [4]) were less than 1 µM and less than 8 µM, respectively.

As for `Cc1c(C(=O)N2CCCc3cc(O)ccc3C2)[nH]c(C(N)=O)c1S(=O)(=O)c1cc(Cl)cc(Cl)c1` [Example 86, 3-[(3,5-dichlorophenyl)sulfonyl]-4-methyl-5-(7-hydroxy-1,3,4,5-tetrahydro-2H-2-benzazepin-2-ylcarbonyl)-1H-pyrrole-2-carboxamide], the figures for the IC95 in experiment [1] (setting [3]) and in experiment [2] (setting [4]) were less than 1 µM and less than 8 µM, respectively.

For the compound `Cc1c(C(=O)N2CCCc3ccc(O)cc3C2)[nH]c(C(N)=O)c1S(=O)(=O)c1ccccc1` [Example 92, 3-(phenylsulfonyl)-4-methyl-5-(8-hydroxy-1,3,4,5-tetrahydro-2H-2-benzazepin-2-ylcarbonyl)-1H-pyrrole-2-carboxamide], the IC95 in experiment [1] (setting [3]) was less than 1 µM; in experiment [2] (setting [4]), less than 8 µM.

As for `Cc1c(C(=O)N2CCCc3ccccc3C2)[nH]c(C(N)=O)c1S(=O)(=O)c1ccccc1` [Example 78, 4-Methyl-3-(phenylsulfonyl)-5-(1,3,4,5-tetrahydro-2H-2-benzazepine-2-ylcarbonyl)-1H-pyrrole-2-carboxamide], the IC95 in experiment [1] (setting [3]) was less than 1 µM.

`Cc1cc(C)cc(S(=O)(=O)c2c(C(N)=O)[nH]c(C(=O)N(C)Cc3ccc(Cl)cc3Cl)c2C)c1` [Example 27, N-(2,4-dichlorobenzyl)-N,3-dimethyl-4-(3,5-dimethylphenylsulfonyl)-1H-pyrrole-2,5-dicarboxamide]: the IC95 in experiment [2] (setting [4]) is less than 8 µM.

`Cc1c(C(=O)N(C)Cc2ccccc2F)[nH]c(C(N)=O)c1S(=O)(=O)c1ccccc1` [Example 7, N-(2-fluorobenzyl)-N,3-dimethyl-4-(phenylsulfonyl)-1H-pyrrole-2,5-dicarboxamide]: the IC95 in experiment [2] (setting [4]) is less than 8 µM.
